# From US20250163018A1, “KEY AMINO ACID BASED ON PROTEIN-DRUG INTERACTIONS INDUCED NEW CRYSTAL FORMS OF TRELAGLIPTIN AND PREPARATION METHODS THEREOF” (GUANGDONG UNIVERSITY OF TECHNOLOGY, priority 2024, published 2025)
# Read-outs that look alike come from different tables or passages of the source.
# Assay: Equilibrium solubility of crystal forms by UV-Vis spectrophotometry (279 nm)
# Assay type: physicochemical
# From the text: The specific operation was as follows: take samples of five new and original crystalline forms after reaching the dissolution equilibrium, filter them with 0.22 μm filter membrane, take appropriate amount of filtrate, according to the UV-Vis spectrophotometric method (Chinese Pharmacopoeia 2020 edition), determine the absorbance value at the wavelength of 279 nm, and substitute them into the standard curve to obtain the solubility of five new and original crystalline forms, as shown in Table 1.
# [1] = pH = 7.0 aqueous solution (deionized water)
SMILES,"solubility (PBS, pH 6.8, aqueous buffer, thermodynamic from solid, pH = 6.8 PBS, read-out: solubility) [mg/mL]","solubility (PBS, pH 7.4, aqueous buffer, thermodynamic from solid, pH = 7.4 PBS, read-out: solubility) [mg/mL]","solubility (deionized water, pH 7, water, thermodynamic from solid, pH = 7.0 aqueous solution (deionized water), read-out: solubility) [mg/mL]","solubility (hydrochloric acid solution, pH 1.2, simulated gastric fluid, thermodynamic from solid, pH = 1.2 hydrochloric acid, read-out: solubility) [mg/mL]",solubility (pH = 1.2 hydrochloric acid) [mg/mL],solubility (pH = 6.8 PBS) [mg/mL],solubility [1] [mg/mL],solubility (pH = 7.4 PBS) [mg/mL]
"Cn1c(=O)cc(N2CCC[C@@H](N)C2)n(Cc2cc(F)ccc2C#N)c1=O [TRE-I, 2-[[6-[(3R)-3-aminopiperidin-1-yl]-3-methyl-2,4-dioxopyrimidin-1-yl]methyl]-4-fluorobenzonitrile]",34.2,28.6,13.2,54,,,,
"Cn1c(=O)cc(N2CCC[C@@H](N)C2)n(Cc2cc(F)ccc2C#N)c1=O [TRE-II, 2-[[6-[(3R)-3-aminopiperidin-1-yl]-3-methyl-2,4-dioxopyrimidin-1-yl]methyl]-4-fluorobenzonitrile]",,,,,45.91,40.01,15.98,37.32
"Cn1c(=O)cc(N2CCC[C@@H](N)C2)n(Cc2cc(F)ccc2C#N)c1=O [TRE-III, 2-[[6-[(3R)-3-aminopiperidin-1-yl]-3-methyl-2,4-dioxopyrimidin-1-yl]methyl]-4-fluorobenzonitrile]",,,,,39.76,35.90,14.93,28.26
"Cn1c(=O)cc(N2CCC[C@@H](N)C2)n(Cc2cc(F)ccc2C#N)c1=O [TRE-IV, 2-[[6-[(3R)-3-aminopiperidin-1-yl]-3-methyl-2,4-dioxopyrimidin-1-yl]methyl]-4-fluorobenzonitrile]",,,,,73.49,35.05,19.56,35.94

# Now from value to compound:
"solubility (PBS, pH 6.8, aqueous buffer, thermodynamic from solid, pH = 6.8 PBS, read-out: solubility) [mg/mL]","solubility (PBS, pH 7.4, aqueous buffer, thermodynamic from solid, pH = 7.4 PBS, read-out: solubility) [mg/mL]","solubility (deionized water, pH 7, water, thermodynamic from solid, pH = 7.0 aqueous solution (deionized water), read-out: solubility) [mg/mL]","solubility (hydrochloric acid solution, pH 1.2, simulated gastric fluid, thermodynamic from solid, pH = 1.2 hydrochloric acid, read-out: solubility) [mg/mL]",solubility (pH = 1.2 hydrochloric acid) [mg/mL],solubility (pH = 6.8 PBS) [mg/mL],solubility [1] [mg/mL],solubility (pH = 7.4 PBS) [mg/mL],SMILES
,,,,76.01,36.12,12.64,37.51,"Cn1c(=O)cc(N2CCC[C@@H](N)C2)n(Cc2cc(F)ccc2C#N)c1=O [TRE-V, 2-[[6-[(3R)-3-aminopiperidin-1-yl]-3-methyl-2,4-dioxopyrimidin-1-yl]methyl]-4-fluorobenzonitrile]"
,,,,,15.46,3.40,12.94,"Cn1c(=O)cc(N2CCC[C@@H](N)C2)n(Cc2cc(F)ccc2C#N)c1=O [original crystal form, 2-[[6-[(3R)-3-aminopiperidin-1-yl]-3-methyl-2,4-dioxopyrimidin-1-yl]methyl]-4-fluorobenzonitrile, reference compound]"
